Six substances from patent publication US7033829B2, “Method to inhibit cell growth using oligonucleotides” (Trustees of Boston University, priority 2000, dated 2006) can be followed below.

The test system of this series is Cloudman S91 mouse melanoma cells. Nature of the series: Melanin content of Cloudman S91 melanoma cells. Conditions: for melanin content relative to control diluent-treated cells: 10 μM, five days, FIG. 17; for melanogenesis: 100 μM dinucleotides or 40 μM 11mers, 6 days; for pigment content increase, of control levels: 100 μM, three experiments; for pigment content increase, of control levels / melanin content, of control cells / increase in melanin / reduction of melanogenic activity by removal of the 5′ phosphate: 5 days; for melanin content, of control cells: FIG. 12; for increase in melanin: FIG. 15; for reduction of melanogenic activity by removal of the 5′ phosphate: FIG. 16. It is filed as cell-based. As to the method: The induction of melanogenesis in Cloudman S91 mouse melanoma cells by a five-nucleotide oligomer CATAC (SEQ ID NO: 6) and a nine-nucleotide oligomer, GAGTATGAG (SEQ ID NO: 1) was examined. Duplicates of Cloudman S91 murine melanoma cells were incubated with either 100 μM oligo or an equal volume of diluent (H2O) for 5 days. The cells were then collected, counted, and an equal number of cells were pelleted for melanin analysis. […] Variations of this oligonucleotide were evaluated: a scrambled 9-mer (TAGGAGGAT; SEQ ID NO: 2) and two truncated versions, a 7-mer (AGTATGA; SEQ ID NO: 3) and second 5-mer (GTATG; SEQ ID NO: 4). […] The truncated versions (SEQ ID NOs: 3 and 4) were also active, inducing 640% and 670% increases, respectively.
Cultures of Cloudman S91 murine melanoma cells were treated for 5 days with SEQ ID NO: 1, SEQ ID NO: 6, pTpT as a positive control, or an equal volume of diluent as a negative control. […] SEQ ID NO: 6 produced a slight increase in melanin, to 165+/−77% of control levels. SEQ ID NO: 1 stimulated melanin content to an average of 600+/−260% of control levels.
pTpT, shown previously to stimulate pigmentation in these cells, was used as a reference treatment, and diluent alone was used as a negative control. After five days of treatment with the oligonucleotides, the cells were collected, counted, and an equal number of cells were pelleted for melanin analysis. […] SEQ ID NO: 5, representing the telomere over-hang sequence, also at 10 μM, increased the melanin level to 10 times that of control cells.
S91 cells were cultured in the presence of diluent alone, pTpT p9mer (SEQ ID NO: 1), p7mer (AGTATGA; SEQ ID NO: 7) or p5mer #2 (SEQ ID NO: 4). […] Both SEQ ID NOS: 4 and 7 stimulated a 7–8 fold increase in melanin.
S91 cells were cultured for 5 days in the presence of the thymidine dinucleotides or SEQ ID NO: 1 with or without a 5′ phosphate or diluent alone as a negative control.
Cultures of S91 mouse melanoma cells (100,000 cells/38 cm^2) were treated with 100 μM pTpT or phosphorothioate pTpT (pTspT) (FIG. 22) or 40 μM 11mer-1 or the phosphorothioate 11mer-1 (11mer-1-S) (FIG. 23) for 6 days and were then collected, counted and assayed for melanin content.
Duplicate cultures of S91 cells (100,000 cells/39 cm^2) were either sham-irradiated or irradiated with 5 mJ/cm^2 solar-simulated light from a 1 kW xenon arc solar-simulator (XMN 1000-21, Optical Radiation, Azuza, Calif.) metered at […] using a research radiometer (model IL1700A, International Light, Newburyport, Mass.). Two sham-irradiated plates were then supplemented with 100 μM pTspT and two irradiated cultures were similarly treated with pTspT. After one week, cells were collected, counted and analyzed for melanin content by dissolving the cell pellets in 1 N NaOH and measuring the optical density at […]. […] However, this response was blocked by the addition of pTspT (FIG. 24). In addition, the constitutive pigmentation of these cells was reduced by the pTspT in the sham-irradiated cultures, similar to the data presented in FIGS. 22 and 23.

Oligonucleotides are written 5' to 3', each unit as a sugar letter and its base; * is a phosphorothioate linkage, no mark a phosphodiester; rarer units and linkages stand in square brackets, end groups in braces. Plain capitals give the bases only. d = 2'-deoxy (DNA); {P} = phosphate

In the case of thymidine dinucleotide [pTpT], the “melanin content relative to control diluent-treated cells” value is recorded as 3 times that of control; the melanogenesis result is given as “stimulated melanogenesis”; the “pigment content increase, of control levels” value is 155%±60%; the “melanin content, of control cells” value is listed as 255+/−60%. The increase in melanin result is recorded as “moderate increase in melanin content” and the “reduction of melanogenic activity by removal of the 5′ phosphate” value amounted to 80%.

As to “pGAGTATGAG (DNA, 5' {P}, backbone not given here) [SEQ ID NO: 1]”, the “pigment content increase, of control levels” value is reported as 418%±267%; the “melanin content, of control cells” value is 600+/−260%; the increase in melanin result was “a larger increase”; the “reduction of melanogenic activity by removal of the 5′ phosphate” value is 60%. The “increase in melanin content” value (variations of the 9-mer, cells not given) was found to be 800%.

Take “pGTTAGGGTTAG (DNA {P}-dGdTdTdAdGdGdGdTdTdAdG) [SEQ ID NO: 5]”: the “melanin content relative to control diluent-treated cells” value is given as 10 times that of control and the melanogenesis result is “stimulated melanogenesis”.

Regarding “pCTAACCCTAAC (DNA, 5' {P}, backbone not given here) [SEQ ID NO: 9, reference compound]”, the “melanin content relative to control diluent-treated cells” value was “did not produce significant change in pigment content”.

Regarding “11mer-1-S: phosphorothioate 11mer-1 (dG*dT*dT*dA*dG*dG*dG*dT*dT*dA*dG; further chemistry not fully specified)”, the melanogenesis entry is on record as “did not”. For the same substance, for the setting “100 μM pTspT or 40 μM 11mer-1-S, 6 days or one week”, the constitutive pigmentation result is reported as “reduced the constitutive pigmentation”.

For “pGATCGATCGAT (DNA {P}-dGdAdTdCdGdAdTdCdGdAdT) [SEQ ID NO: 10, reference compound]”, the “melanin content relative to control diluent-treated cells” value was “did not produce significant change in pigment content”.
